Data: US9427001B2, “Enhanced bioavailable iodine molecules” (ZINPRO CORPORATION, priority 2011, dated 2016)
Read-outs that look alike come from different tables or passages of the source.

Columns and labels:
[1] = nonlactating pregnant beef cows, bolus
[2] = nonlactating pregnant beef cows; 60 mg Iodine/day for 10 days

Row | Substance | Average Serum iodine level (day 2-day 14) ([1]; 60 mg Iodine/day for 10 days (day 0-day 10), average of day 2-14) | Serum iodine Day 10 (last treatment day) ([1]; 60 mg Iodine/day for 10 days, peak value at day 10) | Blood levels of iodine compared with CaIO3 or EDDI ([1]; 60 mg iodine day 0-day 10) | Average Serum iodine level (day 2-day 14) [2] | Serum iodine Day 10 (last treatment day) [2]
1 | Zinc Lysine Diiodide [Structure I] | 184 | 380 | higher blood levels of iodine than CaIO3 or EDDI |  | 
2 | Zinc Hydroxy-Methylthio-Butyric Acid Iodide [Example III] |  |  |  | 386 | 630
